Values of other authors as cited in patent publication US20250268979A1, “COMBINATION OF MACROCYCLIC CFTR MODULATORS WITH CFTR CORRECTORS AND / OR CFTR POTENTIATORS” (Idorsia Pharmaceuticals Ltd, priority 2022, published 2025).
Like-named read-outs stand apart in the source and are kept apart here. Each block holds one molecule with its values, some of them ahead of it.

Tests used:
F508del-CFTR [1] = target: T1, F508del-CFTR (Homo sapiens, UniProt P13569, DEL508-508); details: homozygous F508del-CFTR doners; in the presence of potentiator GLPG1837
T1 construct: from tissue; host or cells: reconstituted bronchial epithelium from CF patients

[2] = system: CF patients homozygous for the F508del-CFTR mutation
[3] = system: CF patients carrying at least one F508del-CFTR allele
[4] = system: patients with moderate to severe COPD and symptoms of chronic bronchitis; details: 300 mg b.i.d., 4 weeks
[5] = system: patients homozygous for the F508del-CFTR mutation; details: 450 mg b.i.d.
[6] = system: CF patients carrying class III, IV CFTR mutations on one allele
healthy volunteers = details: up to 1000 mg following SAD and up to 750 mg b.i.d. following MAD
[7] = system: CF patients with ivacaftor-responsive CFTR mutations; details: for mean ctrough plasma concentration: 4 weeks of treatment; for absolute change from baseline in sweat chloride compared to ivacaftor 150 mg b.i.d. / ppFEV1 treatment difference versus ivacaftor 150 mg b.i.d.: 12 weeks
F508del-CFTR [8] = target: T1, F508del-CFTR
[9] = system: F508del-CFTR homozygous patients; details: Keating, 2018
[10] = 14 days, PTI-801 600 mg triple combination
[11] = patients predisposed to rapid pulmonary decline, combo regimen with 600 mg PTI-801

T1 sequence (P13569 with tags, fused parts or gaps DEL508-508): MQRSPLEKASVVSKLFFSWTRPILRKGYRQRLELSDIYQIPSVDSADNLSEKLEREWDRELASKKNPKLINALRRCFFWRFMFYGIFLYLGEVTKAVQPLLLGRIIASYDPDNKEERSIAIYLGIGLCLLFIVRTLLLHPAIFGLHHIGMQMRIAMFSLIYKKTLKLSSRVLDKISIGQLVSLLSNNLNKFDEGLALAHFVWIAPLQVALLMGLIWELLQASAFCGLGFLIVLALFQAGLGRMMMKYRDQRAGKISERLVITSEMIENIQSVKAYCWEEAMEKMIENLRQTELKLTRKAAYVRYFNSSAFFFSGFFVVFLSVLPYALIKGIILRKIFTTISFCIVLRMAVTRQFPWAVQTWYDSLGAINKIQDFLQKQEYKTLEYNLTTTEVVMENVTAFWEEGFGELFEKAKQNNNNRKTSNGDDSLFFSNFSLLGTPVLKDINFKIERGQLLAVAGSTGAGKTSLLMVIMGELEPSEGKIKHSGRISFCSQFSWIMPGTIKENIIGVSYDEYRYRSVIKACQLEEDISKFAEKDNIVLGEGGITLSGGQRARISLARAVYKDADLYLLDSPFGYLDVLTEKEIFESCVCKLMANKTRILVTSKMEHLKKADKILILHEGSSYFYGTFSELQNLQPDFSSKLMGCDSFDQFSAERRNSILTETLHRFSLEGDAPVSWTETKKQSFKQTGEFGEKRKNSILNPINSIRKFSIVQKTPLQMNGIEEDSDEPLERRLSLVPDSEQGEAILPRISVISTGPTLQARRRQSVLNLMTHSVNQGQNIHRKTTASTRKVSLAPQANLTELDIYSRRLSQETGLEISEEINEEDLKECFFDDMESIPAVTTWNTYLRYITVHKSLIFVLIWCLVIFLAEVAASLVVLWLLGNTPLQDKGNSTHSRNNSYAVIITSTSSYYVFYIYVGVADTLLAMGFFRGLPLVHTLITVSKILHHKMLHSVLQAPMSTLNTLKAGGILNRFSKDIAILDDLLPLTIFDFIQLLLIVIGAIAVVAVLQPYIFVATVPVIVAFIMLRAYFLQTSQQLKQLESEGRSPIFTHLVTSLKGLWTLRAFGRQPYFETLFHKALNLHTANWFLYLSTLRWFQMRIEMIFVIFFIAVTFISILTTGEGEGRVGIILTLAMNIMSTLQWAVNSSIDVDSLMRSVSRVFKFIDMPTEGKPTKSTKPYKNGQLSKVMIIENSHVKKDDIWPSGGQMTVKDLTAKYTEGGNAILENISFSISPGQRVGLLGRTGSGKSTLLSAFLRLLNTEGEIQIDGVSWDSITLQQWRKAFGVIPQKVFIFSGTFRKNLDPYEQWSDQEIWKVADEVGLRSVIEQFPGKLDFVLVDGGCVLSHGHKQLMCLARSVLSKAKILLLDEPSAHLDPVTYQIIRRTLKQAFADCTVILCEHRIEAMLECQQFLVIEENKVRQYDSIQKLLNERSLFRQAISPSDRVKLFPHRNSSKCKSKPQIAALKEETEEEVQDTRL

SMILES: Cc1c(-c2cc(C(=O)O)c3c(O[C@H](C)C4CCOCC4)ccc(C)c3n2)oc2ccccc12 [PTI-801]
decrease in sweat chloride compared with before treatment [3, 10]: 19 mM
decrease in sweat chloride compared with placebo [3, 10]: 24 mM
increase in mean absolute ppFEV1 compared with before the treatment ([3]; 14 days, PTI-801 600 mg with PTI-808 150 mg and PTI-428 30 mg): 5%
improvement in ppFEV1 compared with before treatment [3, 11]: 6%
improvement in ppFEV1 compared with placebo [3, 11]: 8%

SMILES: COc1nc(C(=O)NC[C@](C)(O)C(F)(F)F)c(N)cc1C(F)(F)F [icenticaftor, 3-Amino-6-methoxy-N-[(2S)-3,3,3-trifluoro-2-hydroxy-2-methylpropyl]-5-(trifluoromethyl)pyridine-2-carboxamide]
LCI2.5 compared to placebo [4]: did not change
sweat chloride compared to placebo ([4]; average baseline 23 mM): -5.04 mM
FEV1 compared to placebo ([4]; average baseline 1.4-1.5 L): 0.05 to 0.06 L
plasma fibrinogen compared to placebo ([4]; average baseline 3.2 g/L): -0.39 g/L
sweat chloride and lung function [5]: no reduction in sweat chloride or improvement in lung function
LCI2.5 compared to placebo ([6]; 450 mg b.i.d., 14 days): −1.13
ppFEV1 increase versus placebo ([6]; 450 mg b.i.d., 14 days): 6.5%
sweat chloride concentration versus placebo ([6]; 450 mg b.i.d., 14 days): -8.4 mM
tolerability in CF patients ([6]; 150 and 450 mg b.i.d., across all patient sub-groups): well tolerated
tolerability (healthy volunteers): well tolerated

SMILES: CC(C)(C)c1cc(C(C)(C)C)c(NC(=O)c2c[nH]c3ccccc3c2=O)cc1O [ivacaftor, N-(2,4-di-tert-butyl-5-hydroxyphenyl)-1,4-dihydro-4-oxoquinoline-3-carboxamide]
mean ctrough plasma concentration ([7]; 150 mg b.i.d.): 952 ng/mL
further augmentation of function on addition to tezacaftor and elexacaftor (F508del-CFTR [8]; Keating, 2018): 2 fold
augmentation of CFTR function on addition to lumacaftor-corrected F508del-CFTR (F508del-CFTR [8]; van Goor, 2011): almost two-fold

SMILES: Cc1nn(C)cc1S(=O)(=O)NC(=O)c1ccc(-n2ccc(OCC(C)(C)C(F)(F)F)n2)nc1N1C[C@@H](C)CC1(C)C [elexacaftor, N-(1,3-dimethyl-1H-pyrazole-4-sulfonyl)-6-[3-(3,3,3-trifluoro-2,2-dimethylpropoxy)-1H-pyrazol-1-yl]-2-[(4S)-2,2,4-trimethylpyrrolidin-1-yl]pyridine-3-carboxamide]
ppFEV1 increase on adding to basal treatment of tezacaftor+ivacaftor (SYMDEKO) [9]: 10%

Continued, in another order:

galicaftor exposure in the presence of two different doses of navocaftor (healthy subjects; in vivo): similar
EC50 (F508del-CFTR [1]): 5 nM
SMILES: O=C(O)c1ccc([C@H]2C[C@@H](NC(=O)C3(c4ccc5c(c4)OC(F)(F)O5)CC3)c3ccc(OC(F)F)cc3O2)cc1 [galicaftor, 4-[(2R,4R)-4-({[1-(2,2-Difluoro-1,3-benzodioxol-5-yl)cyclopropyl]carbonyl}amino)-7-(difluoromethoxy)-3,4-dihydro-2H-chromen-2-yl]benzoic Acid]
change in sweat chloride versus placebo ([2]; 200 mg dose group, day 29): -15.8 mM
tolerability and safety ([2]; 4 weeks, once-daily 50, 100, 200 and 400 mg): well tolerated and safe
change from baseline in CFQ-R score versus placebo ([2]; day 29): No significant changes versus placebo
change from baseline in ppFEV1 versus placebo ([2]; day 29): No significant changes versus placebo

navocaftor exposure in the presence of galicaftor (healthy subjects; in vivo): not apparently altered
SMILES: Nc1cc(S(=O)(=O)c2ccc(OC(F)(F)F)cc2)cnc1-c1nnc(CO)o1 [navocaftor, (5-(3-Amino-5-((4-(trifluoromethoxy)phenyl)sulfonyl)pyridin-2-yl)-1,3,4-oxadiazol-2-yl) methanol]
tolerability (healthy subjects; up to 1000 mg single dose and up to 500 mg b.i.d. for 14 days): generally well tolerated

mean ctrough plasma concentration ([7]; 150 mg once daily): 458 ng/mL
mean ctrough plasma concentration ([7]; 250 mg once daily): 1100 ng/mL
SMILES: [2H]C([2H])([2H])C(c1cc(C(C)(C)C)c(NC(=O)c2c[nH]c3ccccc3c2=O)cc1O)(C([2H])([2H])[2H])C([2H])([2H])[2H] [deutivacaftor, N-[2-tert-butyl-4-[1,1,1,3,3,3-hexadeuterio-2-(trideuteriomethyl)propan-2-yl]-5-hydroxyphenyl]-4-oxo-1H-quinoline-3-carboxamide]
absolute change from baseline in sweat chloride compared to ivacaftor 150 mg b.i.d. ([7]; 150 mg once daily): +2.4 mM
ppFEV1 treatment difference versus ivacaftor 150 mg b.i.d. ([7]; 150 mg once daily): +3.9%
absolute change from baseline in sweat chloride compared to ivacaftor 150 mg b.i.d. ([7]; 250 mg once daily): -7.4 mM
ppFEV1 treatment difference versus ivacaftor 150 mg b.i.d. ([7]; 250 mg once daily): +3.5%
